# Results from paper PMC12067444, “Synthesis and Pharmacological Characterization of Novel Peripheral Cannabinoid-1 Receptor Blockers Based on a Tricyclic Scaffold” (Journal of Medicinal Chemistry, 2025).
# Where two headings read alike, the source gives them in different places.
# What was measured:
# [1] = system: TA98; assay: Mini-Ames assay, strain TA98; format: cell-based; conditions: for F value: fold vs DMSO; for Growth of lawn: replicates 1-3;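 on solubility: P0 means no precipitate in solution and no crystal growth on plates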
# Method: Mini Am es assay. To conduct the assay, top agar was melted with a microwave and maintained at a temper atur e ≥47 °C in a water bath. T he assay was performed using a heat block set to 45 °C ± 2 °C. 12 × 75 mm test tubes were prepared in duplicates. For each concentration, the following components were added sequentially to a test tube:
# […] The mixture was vortexed and then dispensed into w ells using a dispo sable pipette. The plates wer e then incubated at 37±2 °C for approximately 48 to 72 hours.
# BBbbbb BBBBbbbb BBBB = AAAAbbbbbbAAbb nnnnnnbbbbbb bboo bbbbAAbbbbbbbbnnbbbb oobbbb bbbb eeee dd bbbbbb AAbbbbnn gg AAAAbbbbbbAAbb nnnnnnbbbbbb bbBB bbbbAAbbbbbbbbnnbbbb BBbbbb DDDDDDDD nn bbAAbbbbaaAAbb AAbbbbnnaa The mutagenicity of the compound was determined by evaluating the number of revertant colonies in strains TA98 and TA100. A compound was […]
# related and if the fold increase in revertants (F) was equal to or greater than 2 for […]
# background lawn growth on the agar plates. A scoring system ranging from 0 to 4 […]
# growth, respectively. A score of 4 signified full '100%' growth. […]
# background lawn and required magnification for visualization. […]
# [2] = system: mouse brain tissue; assay: Protein binding in mouse brain, equilibrium dialysis
# Method: Protein binding of test compound in mouse brain using equilibrium dialysis […]
# method. Solution A (0. 5 mM) was prepared by mixing 10 µL of a 10 mM stock solution […]
# with 190 µL of DMSO. Subsequently, Solution B (0.02 mM) was prepared by adding […]
# 8 µL of solution A to 192 µL of 0.05 M sodium phosphate buffer. The final concentration of DMSO in Solution B was 4%.
# A 96-well plate was initially prepared by dispensing 380 µL aliquots of brain […]
# tissue into wells designated for the brain while t h e buffer was added to the remaining […]
# wells to serve as a control. Subsequently, 20 µL of Solution B (containing 0.02 mM of […]
# test and reference compounds) was spiked into the pre-loaded brain samples in the […]
# plate. This step yielded a final test concentration of 1 µM, containing 0.2% DMSO. A duplicate system was establi shed for the dialysis sampl es wherein brain tissu e was prepared against buffer. Initially, 100 µL aliquots of blank dialysis buffer were applied to the receiver side of the dialysis chambers. Subsequently, 100 µL aliquots of the brain […]
# tissue spiked with te st and reference compounds were applied to the donor side of the […]
# T0 brain samples for initial concentrations were prepared in duplicate. A 25µL […]
# aliquot of the brain spiked with test and reference compounds was transferred into a 96- […]
# well sample preparation plate. An equivalent volume of blank buffer was then added […]
# to each well. Af ter the 5-hour incubation period, aliquots of 25 µL wer e taken f r om t h e […]
# dialysis apparatus's donor and receiver sides and transferred into new sample […]
# preparation plates. An equal volume of the opposite matrix (blank buffer to brain and […]
# vice versa) was added to each well, resulting in a final volume of 50 µL in each well.
# The samples (both T0 and f i v e h) were then quenched with 200 µL of acetonitrile […]
# containing internal standard (IS) and vortexed at 600 rpm for 10 minutes. After […]
# vortexing, the samples were centrifuged at 5594 × g for 15 minutes. Subsequently, 50 […]
# µL of the supernatants were transferred to a new 96-well plate and mixed with 50 µL […]
# of Milli- Q water. T he sample plates wer e cover ed and stor ed in a f r eezer ( -20 ℃) until […]
# respectively. For data analysis, the following equations wer e used:
# % Bound = 100 × ([Donor]5h -[ Receiver] 5h) / [Donor] 5h
# % Recovery= 100 × ([Donor]5h +[Receiver] 5h) / [Initial] 0h
# Undiluted Fu (%) = (1/D) / [(1/Fu2-1 ) + 1/ D ]
# Whereas; D: Dilution factor = Dilution factor of brain: 4
# [3] = Tissue distribution after acute oral administration; format: in vivo, mouse; conditions: for Kp at 1 h: male, C57Bl/6J, mouse, in vivo, 1 mg/kg PO, 1 h post-acute administration
# Method: Male C57Bl/6J mice aged 7–9 weeks (3–4 mice per compound) were fasted overnight before administering each test compound. The compounds were accurately weighed and mixed with an appropriate vehicle to prepare a clear oral solution. The formulations were freshly prepared on the dosing day, and the mice were administered the compound via oral gavage within 4 h of formulation preparation. 1, 2, 4, and 8 h after compound administration, the mice were euthanized, and approximately 200 μL of blood was collected via cardiac puncture for plasma preparation. Brain and liver tissues were harvested and processed for analysis. Sample analysis was performed using LC-MS/MS, as described in detail in the SI. […]
# calculated using the equation:
# Lucif er yellow = VV bbbbbbbbbbbbbbbbbbbb ×RR FFFF bbbbbbbbbbbbbbbbbbbb ×100 […]
# Measurements of BNS808 using LC-MS/MS. MS/MS analyses were conducted using a Sciex QTRAP® 6500+ mass spectrometer (Framingham, MA, USA). Air was […]
# Infinity 1031 nitrogen generator (Peak Scientific, Inchinnan, Scotland). Purified air […]
# generator to ensure a continuous and stable air supply.
smiles,measurement,setting,value
"O=S(=O)(NC1CCCOc2c1nn(-c1ccccc1Cl)c2-c1ccc(Cl)cc1)c1ccc(Cl)cc1 (stereo not shown) [BNS808, 4-chloro-N-[2-(2-chlorophenyl)-3-(4-chlorophenyl)-5,6,7,8-tetrahydrooxepino[3,2-c]pyrazol-8-yl]benzenesulfonamide]",Number of revertants MEAN,"[1]; TA98, +S9, 31.25 μg/well",10.67
same,solubility,"[1]; TA98, +S9, 31.25 μg/well",P0
same,F value,"[1]; TA98, +S9, 31.25 μg/well",0.97
same,Growth of lawn,"[1]; TA98, +S9, 31.25 μg/well",4 (A score of 4 signified full '100%' growth)
same,Number of revertants MEAN,"[1]; TA98, +S9, 62.5 μg/well",11.33
same,solubility,"[1]; TA98, +S9, 62.5 μg/well",P0
same,F value,"[1]; TA98, +S9, 62.5 μg/well",1.03
same,Growth of lawn,"[1]; TA98, +S9, 62.5 μg/well",4 (A score of 4 signified full '100%' growth)
same,Number of revertants MEAN,"[1]; TA98, +S9, 125 μg/well",11.33
same,solubility,"[1]; TA98, +S9, 125 μg/well",P0
same,F value,"[1]; TA98, +S9, 125 μg/well",1.03
same,Growth of lawn,"[1]; TA98, +S9, 125 μg/well",4 (A score of 4 signified full '100%' growth)
same,Number of revertants MEAN,"[1]; TA98, +S9, 250 μg/well",13.00
same,solubility,"[1]; TA98, +S9, 250 μg/well",P1 (0~20% growth of crystals)
same,F value,"[1]; TA98, +S9, 250 μg/well",1.18
same,Growth of lawn,"[1]; TA98, +S9, 250 μg/well",4 (A score of 4 signified full '100%' growth)
same,Number of revertants MEAN,"[1]; TA98, +S9, 500 μg/well",10.00
same,solubility,"[1]; TA98, +S9, 500 μg/well",P2 (20%~60% growth of crystals)
same,F value,"[1]; TA98, +S9, 500 μg/well",0.91
same,Growth of lawn,"[1]; TA98, +S9, 500 μg/well",4 (A score of 4 signified full '100%' growth)
same,Number of revertants MEAN,"[1]; TA98, +S9, 1000 μg/well",9.67
same,solubility,"[1]; TA98, +S9, 1000 μg/well",P3 (60%~100% growth of crystals)
same,F value,"[1]; TA98, +S9, 1000 μg/well",0.88
same,Growth of lawn,"[1]; TA98, +S9, 1000 μg/well",4 (A score of 4 signified full '100%' growth)
same,Number of revertants MEAN,"[1]; TA98, -S9, 31.25 μg/well",6.67
same,solubility,"[1]; TA98, -S9, 31.25 μg/well",P0
same,F value,"[1]; TA98, -S9, 31.25 μg/well",0.91
same,Growth of lawn,"[1]; TA98, -S9, 31.25 μg/well",4 (A score of 4 signified full '100%' growth)
same,Number of revertants MEAN,"[1]; TA98, -S9, 62.5 μg/well",8.67
same,solubility,"[1]; TA98, -S9, 62.5 μg/well",P0
same,F value,"[1]; TA98, -S9, 62.5 μg/well",1.18
same,Growth of lawn,"[1]; TA98, -S9, 62.5 μg/well",4 (A score of 4 signified full '100%' growth)
same,Number of revertants MEAN,"[1]; TA98, -S9, 125 μg/well",7.33
same,solubility,"[1]; TA98, -S9, 125 μg/well",P0
same,F value,"[1]; TA98, -S9, 125 μg/well",1.00
same,Growth of lawn,"[1]; TA98, -S9, 125 μg/well",4 (A score of 4 signified full '100%' growth)
same,Number of revertants MEAN,"[1]; TA98, -S9, 250 μg/well",4.00
same,solubility,"[1]; TA98, -S9, 250 μg/well",P1 (0~20% growth of crystals)
same,F value,"[1]; TA98, -S9, 250 μg/well",0.55
same,Growth of lawn,"[1]; TA98, -S9, 250 μg/well",4 (A score of 4 signified full '100%' growth)
same,Number of revertants MEAN,"[1]; TA98, -S9, 500 μg/well",5.33
same,solubility,"[1]; TA98, -S9, 500 μg/well",P2 (20%~60% growth of crystals)
same,F value,"[1]; TA98, -S9, 500 μg/well",0.73
same,Growth of lawn,"[1]; TA98, -S9, 500 μg/well",4 (A score of 4 signified full '100%' growth)
same,Number of revertants MEAN,"[1]; TA98, -S9, 1000 μg/well",3.33
same,solubility,"[1]; TA98, -S9, 1000 μg/well",P3 (60%~100% growth of crystals)
same,F value,"[1]; TA98, -S9, 1000 μg/well",0.45
same,Growth of lawn,"[1]; TA98, -S9, 1000 μg/well",4 (A score of 4 signified full '100%' growth)
same,protein binding in mouse brain (category),"[2]; equilibrium dialysis, 1 µM, 5 h",extremely high protein binding and high
same,Fraction of bound (%),"[2]; mouse brain, diluted homogenate, 5 h",100%
same,Undiluted Bound (%),"[2]; mouse brain, dilution factor 4",100.0%
same,liver concentration,"[3]; 1 mg/kg PO acute, time point not stated",~200 ng/g
same,"brain concentration, average over time points","[3]; 1 mg/kg PO single acute dose, lean C57Bl/6 mice, 1, 2, 4, 8 h",13.7 ng/g
same,Kp at 1 h,[3]; read-out: brain-to-plasma (B/P) ratio,0.18
same,Kp at 1 h,[3]; read-out: liver/plasma (L/P) ratio,3.62
